Test results published in ChEMBL document CHEMBL3576778, “Structure-Activity Relationship Studies of a Series of Semisynthetic Lipopeptides Leading to the Discovery of Surotomycin, a Novel Cyclic Lipopeptide Being Developed for the Treatment of Clostridium difficile-Associated Diarrhea” (J Med Chem, 2015).
In brackets after ≈: the same amount, converted by molar mass.

Legend:
Assay type in all cases: functional
Staphylococcus aureus [1] = assay: Antimicrobial activity against daptomycin-non-susceptible Staphylococcus aureus 1179 incubated anaerobically at 37 degC for 48 hrs by agar dilution method; conditions: Staphylococcus aureus, 1179, 48 h
Prevotella sp. = assay: Toxicity against Prevotella spp. assessed as inhibition of microbe growth
Staphylococcus aureus [2] = assay: Potency index, ratio of MIC for daptomycin to MIC for test compound against daptomycin-non-susceptible Staphylococcus aureus 5016 incubated anaerobically at 37 degC for 48 hrs by agar dilution method
Staphylococcus aureus [3] = assay: Potency index, ratio of MIC for daptomycin to MIC for test compound against daptomycin-non-susceptible Staphylococcus aureus 42 incubated anaerobically at 37 degC for 48 hrs by agar dilution method
Clostridioides difficile [4] = assay: Antimicrobial activity against metronidazole-resistant Clostridium difficile
Staphylococcus aureus [5] = assay: Antimicrobial activity against daptomycin-non-susceptible Staphylococcus aureus 42 incubated anaerobically at 37 degC for 48 hrs by agar dilution method; conditions: Staphylococcus aureus, 42, 48 h
Staphylococcus aureus [6] = assay: Potency index, ratio of MIC for daptomycin to MIC for test compound against daptomycin-non-susceptible Staphylococcus aureus 5003 incubated anaerobically at 37 degC for 48 hrs by agar dilution method
Staphylococcus aureus [7] = assay: Potency index, ratio of MIC for daptomycin to MIC for test compound against daptomycin-non-susceptible Staphylococcus aureus 5030 incubated anaerobically at 37 degC for 48 hrs by agar dilution method
Staphylococcus aureus [8] = assay: Potency index, ratio of MIC for daptomycin to MIC for test compound against daptomycin-non-susceptible Staphylococcus aureus 5010 incubated anaerobically at 37 degC for 48 hrs by agar dilution method
Staphylococcus aureus [9] = assay: Antimicrobial activity against daptomycin-non-susceptible Staphylococcus aureus 399 incubated anaerobically at 37 degC for 48 hrs by agar dilution method; conditions: Staphylococcus aureus, 399, 48 h
Staphylococcus aureus [10] = assay: Potency index, ratio of MIC for daptomycin to MIC for test compound against daptomycin-non-susceptible Staphylococcus aureus 278 incubated anaerobically at 37 degC for 48 hrs by agar dilution method
Staphylococcus aureus [11] = assay: Potency index, ratio of MIC for daptomycin to MIC for test compound against daptomycin-non-susceptible Staphylococcus aureus 5081 incubated anaerobically at 37 degC for 48 hrs by agar dilution method
Enterococcus faecalis [12] = assay: Antimicrobial activity against daptomycin-resistant Enterococcus faecalis ATCC 49452 incubated anaerobically at 37 degC for 48 hrs by agar dilution method; conditions: ATCC 49452, 48 h
Staphylococcus aureus [13] = assay: Antimicrobial activity against daptomycin-non-susceptible Staphylococcus aureus 5034 incubated anaerobically at 37 degC for 48 hrs by agar dilution method; conditions: Staphylococcus aureus, 5034, 48 h
Staphylococcus aureus [14] = assay: Antimicrobial activity against daptomycin-non-susceptible Staphylococcus aureus 5076 incubated anaerobically at 37 degC for 48 hrs by agar dilution method; conditions: Staphylococcus aureus, 5076, 48 h
Staphylococcus aureus [15] = assay: Potency index, ratio of MIC for daptomycin to MIC for test compound against daptomycin-non-susceptible Staphylococcus aureus 5091 incubated anaerobically at 37 degC for 48 hrs by agar dilution method
Staphylococcus aureus [16] = assay: Potency index, ratio of MIC for daptomycin to MIC for test compound against daptomycin-non-susceptible Staphylococcus aureus 399 incubated anaerobically at 37 degC for 48 hrs by agar dilution method
Staphylococcus aureus [17] = assay: Potency index, ratio of MIC for daptomycin to MIC for test compound against daptomycin-non-susceptible Staphylococcus aureus 1179 incubated anaerobically at 37 degC for 48 hrs by agar dilution method
Clostridioides difficile [18] = assay: Antimicrobial activity against vancomycin-resistant Clostridium difficile
Staphylococcus aureus [19] = assay: Antimicrobial activity against daptomycin-susceptible Staphylococcus aureus ATCC 29213 incubated anaerobically at 37 degC for 48 hrs by agar dilution method; conditions: ATCC 29213, 48 h
Staphylococcus aureus [20] = assay: Potency index, ratio of MIC for daptomycin to MIC for test compound against daptomycin-non-susceptible Staphylococcus aureus 5017 incubated anaerobically at 37 degC for 48 hrs by agar dilution method
Staphylococcus aureus [21] = assay: Potency index, ratio of MIC for daptomycin to MIC for test compound against daptomycin-non-susceptible Staphylococcus aureus 5004 incubated anaerobically at 37 degC for 48 hrs by agar dilution method
Staphylococcus aureus [22] = assay: Potency index, ratio of MIC for daptomycin to MIC for test compound against daptomycin-non-susceptible Staphylococcus aureus 1146 incubated anaerobically at 37 degC for 48 hrs by agar dilution method
Staphylococcus aureus [23] = assay: Antimicrobial activity against daptomycin-non-susceptible Staphylococcus aureus 5030 incubated anaerobically at 37 degC for 48 hrs by agar dilution method; conditions: Staphylococcus aureus, 5030, 48 h
Staphylococcus aureus [24] = assay: Antimicrobial activity against daptomycin-non-susceptible Staphylococcus aureus 278 incubated anaerobically at 37 degC for 48 hrs by agar dilution method; conditions: Staphylococcus aureus, 278, 48 h
Staphylococcus aureus [25] = assay: Potency index, ratio of MIC for daptomycin to MIC for test compound against daptomycin-non-susceptible Staphylococcus aureus 5060 incubated anaerobically at 37 degC for 48 hrs by agar dilution method
Staphylococcus aureus [26] = assay: Potency index, ratio of MIC for daptomycin to MIC for test compound against daptomycin-non-susceptible Staphylococcus aureus 1145 incubated anaerobically at 37 degC for 48 hrs by agar dilution method
Staphylococcus aureus [27] = assay: Potency index, ratio of MIC for daptomycin to MIC for test compound against daptomycin-non-susceptible Staphylococcus aureus 5008 incubated anaerobically at 37 degC for 48 hrs by agar dilution method
Staphylococcus aureus [28] = assay: Antimicrobial activity against daptomycin-non-susceptible Staphylococcus aureus 5008 incubated anaerobically at 37 degC for 48 hrs by agar dilution method; conditions: Staphylococcus aureus, 5008, 48 h
Clostridioides difficile [29] = assay: Antimicrobial activity against daptomycin-resistant Clostridium difficile ATCC 43596 infected in Syrian golden hamster model of Clostridium difficile-associated diarrhea assessed as protection against microbial infection by measuring survival at day 25 to 26 at 0.5 mg/kg treated once daily for 5 consecutive days starting 4 hrs after spore inoculation
Staphylococcus aureus [30] = assay: Potency index, ratio of MIC for daptomycin to MIC for test compound against daptomycin-non-susceptible Staphylococcus aureus 5005 incubated anaerobically at 37 degC for 48 hrs by agar dilution method
Staphylococcus aureus [31] = assay: Potency index, ratio of MIC for daptomycin to MIC for test compound against daptomycin-non-susceptible Staphylococcus aureus 5012 incubated anaerobically at 37 degC for 48 hrs by agar dilution method
Enterococcus faecalis [32] = assay: Potency index, ratio of MIC for daptomycin to MIC for test compound against daptomycin-resistant Enterococcus faecalis ATCC 49452 incubated anaerobically at 37 degC for 48 hrs by agar dilution method
Staphylococcus aureus [33] = assay: Antimicrobial activity against daptomycin-non-susceptible Staphylococcus aureus 5010 incubated anaerobically at 37 degC for 48 hrs by agar dilution method; conditions: Staphylococcus aureus, 5010, 48 h
Staphylococcus aureus [34] = assay: Potency index, ratio of MIC for daptomycin to MIC for test compound against daptomycin-non-susceptible Staphylococcus aureus 5033 incubated anaerobically at 37 degC for 48 hrs by agar dilution method
Staphylococcus aureus [35] = assay: Antimicrobial activity against daptomycin-non-susceptible Staphylococcus aureus 5081 incubated anaerobically at 37 degC for 48 hrs by agar dilution method; conditions: Staphylococcus aureus, 5081, 48 h
Staphylococcus aureus [36] = assay: Antimicrobial activity against daptomycin-non-susceptible Staphylococcus aureus 1146 incubated anaerobically at 37 degC for 48 hrs by agar dilution method; conditions: Staphylococcus aureus, 1146, 48 h

CCCCCc1ccc(/C(C)=C/C(=O)N[C@@H](Cc2c[nH]c3ccccc23)C(=O)N[C@H](CC(N)=O)C(=O)N[C@@H](CC(=O)O)C(=O)N[C@@H]2C(=O)NCC(=O)N[C@@H](CCCN)C(=O)N[C@@H](CC(=O)O)C(=O)N[C@H](C)C(=O)N[C@@H](CC(=O)O)C(=O)NCC(=O)N[C@H](CO)C(=O)N[C@@H]([C@@H](C)CC(=O)O)C(=O)N[C@@H](CC(=O)c3ccccc3N)C(=O)O[C@@H]2C)cc1
MIC (Staphylococcus aureus [1]): 0.25 µg/mL (≈ 0.149 µM) | MIC (Prevotella sp.): ≥ 8190 µg/mL | Ratio (Staphylococcus aureus [2]): 2 | Ratio (Staphylococcus aureus [3]): 2 | MIC (Clostridioides difficile [4]): 0.5 µg/mL (≈ 0.297 µM) | MIC (Staphylococcus aureus [5]): 0.125 µg/mL (≈ 0.0744 µM) | Ratio (Staphylococcus aureus [6]): 2 | Ratio (Staphylococcus aureus [7]): 2 | Ratio (Staphylococcus aureus [8]): 2 | MIC (Staphylococcus aureus [9]): 0.125 µg/mL (≈ 0.0744 µM) | Ratio (Staphylococcus aureus [10]): 2 | Ratio (Staphylococcus aureus [11]): 2 | MIC (Enterococcus faecalis [12]): 4 µg/mL (≈ 2.38 µM) | MIC (Staphylococcus aureus [13]): 0.5 µg/mL (≈ 0.297 µM) | MIC (Staphylococcus aureus [14]): 0.5 µg/mL (≈ 0.297 µM) | Ratio (Staphylococcus aureus [15]): 2 | Ratio (Staphylococcus aureus [16]): 2 | Ratio (Staphylococcus aureus [17]): 2 | MIC (Clostridioides difficile [18]): 0.125 µg/mL (≈ 0.0744 µM) | MIC (Staphylococcus aureus [19]): 0.25 µg/mL (≈ 0.149 µM) | Ratio (Staphylococcus aureus [20]): 2 | Ratio (Staphylococcus aureus [21]): 2 | Ratio (Staphylococcus aureus [22]): 2 | MIC (Staphylococcus aureus [23]): 1 µg/mL (≈ 0.595 µM) | MIC (Staphylococcus aureus [24]): 1 µg/mL (≈ 0.595 µM) | Ratio (Staphylococcus aureus [25]): 2 | Ratio (Staphylococcus aureus [26]): 2 | Ratio (Staphylococcus aureus [27]): 2 | MIC (Staphylococcus aureus [28]): 0.5 µg/mL (≈ 0.297 µM) | survival at 0.5 mg/kg (Clostridioides difficile [29]): 100% | Ratio (Staphylococcus aureus [30]): 2 | Ratio (Staphylococcus aureus [31]): 2 | Ratio (Enterococcus faecalis [32]): >8 | MIC (Staphylococcus aureus [33]): 0.25 µg/mL (≈ 0.149 µM) | Ratio (Staphylococcus aureus [34]): 2 | MIC (Staphylococcus aureus [35]): 1 µg/mL (≈ 0.595 µM) | MIC (Staphylococcus aureus [36]): 0.25 µg/mL (≈ 0.149 µM)
